Data published in publication PMC9611727, “Optimization of a Novel Mandelamide-Derived Pyrrolopyrimidine Series of PERK Inhibitors” (Pharmaceutics, 2022).

Legend:
Experiment in all cases: scanMAX kinase panel
Type in all cases: binding
Details in all cases: read-out: % Control; for remaining binding at 1 µM: 1000 nM
FLT3(N841I) = molecular target: T1, FLT3(N841I) (Homo sapiens, UniProt P36888, N841I)
T1 construct: purchased DiscoverX scanMAX
T1 sequence (P36888 27-993 N841I): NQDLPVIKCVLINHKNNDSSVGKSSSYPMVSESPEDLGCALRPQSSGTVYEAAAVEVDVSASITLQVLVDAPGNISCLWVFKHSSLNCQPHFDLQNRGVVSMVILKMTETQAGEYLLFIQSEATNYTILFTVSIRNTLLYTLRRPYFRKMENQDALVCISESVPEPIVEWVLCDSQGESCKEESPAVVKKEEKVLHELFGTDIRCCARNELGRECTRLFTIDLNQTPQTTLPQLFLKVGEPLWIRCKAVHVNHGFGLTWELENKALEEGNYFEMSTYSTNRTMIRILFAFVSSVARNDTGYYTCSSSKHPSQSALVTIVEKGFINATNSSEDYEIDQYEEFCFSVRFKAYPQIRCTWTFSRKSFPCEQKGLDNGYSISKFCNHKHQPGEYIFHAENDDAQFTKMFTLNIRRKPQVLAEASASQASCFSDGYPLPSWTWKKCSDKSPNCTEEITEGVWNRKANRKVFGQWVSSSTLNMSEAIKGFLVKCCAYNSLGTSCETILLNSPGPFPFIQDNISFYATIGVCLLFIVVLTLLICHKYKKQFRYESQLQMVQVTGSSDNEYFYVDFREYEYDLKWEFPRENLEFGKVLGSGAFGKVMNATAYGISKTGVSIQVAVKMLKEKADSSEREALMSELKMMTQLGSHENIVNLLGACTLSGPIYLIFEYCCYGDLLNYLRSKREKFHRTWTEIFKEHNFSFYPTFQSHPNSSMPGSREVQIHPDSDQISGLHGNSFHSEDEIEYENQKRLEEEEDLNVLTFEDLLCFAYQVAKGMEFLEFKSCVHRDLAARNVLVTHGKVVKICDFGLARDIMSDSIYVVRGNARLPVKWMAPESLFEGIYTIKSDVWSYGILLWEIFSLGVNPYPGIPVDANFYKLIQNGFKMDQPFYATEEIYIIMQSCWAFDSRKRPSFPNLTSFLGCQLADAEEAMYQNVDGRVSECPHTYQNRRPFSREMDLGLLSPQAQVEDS
Source text: (§1) Supplemental Table S2. scanMAXSM Kinome Assay Results. Complete tabulated data of all 468 kinases from the panel, including
(§2) 403 wild-type and 65 mutant isoforms. […] Cmpd 11 and Cmpd 24

KIT(L576P) = molecular target: T2, KIT(L576P) (Homo sapiens, UniProt P10721, L576P)
T2 construct: purchased DiscoverX scanMAX
Source text: as §1, §2

LTK = molecular target: T3, LTK (Homo sapiens, UniProt P29376)
T3 construct: purchased DiscoverX scanMAX
Source text: as §1, §2

EPHB6 = molecular target: T4, EPHB6 (Homo sapiens, UniProt O15197)
T4 construct: purchased DiscoverX scanMAX
T4 sequence (O15197 32-1021): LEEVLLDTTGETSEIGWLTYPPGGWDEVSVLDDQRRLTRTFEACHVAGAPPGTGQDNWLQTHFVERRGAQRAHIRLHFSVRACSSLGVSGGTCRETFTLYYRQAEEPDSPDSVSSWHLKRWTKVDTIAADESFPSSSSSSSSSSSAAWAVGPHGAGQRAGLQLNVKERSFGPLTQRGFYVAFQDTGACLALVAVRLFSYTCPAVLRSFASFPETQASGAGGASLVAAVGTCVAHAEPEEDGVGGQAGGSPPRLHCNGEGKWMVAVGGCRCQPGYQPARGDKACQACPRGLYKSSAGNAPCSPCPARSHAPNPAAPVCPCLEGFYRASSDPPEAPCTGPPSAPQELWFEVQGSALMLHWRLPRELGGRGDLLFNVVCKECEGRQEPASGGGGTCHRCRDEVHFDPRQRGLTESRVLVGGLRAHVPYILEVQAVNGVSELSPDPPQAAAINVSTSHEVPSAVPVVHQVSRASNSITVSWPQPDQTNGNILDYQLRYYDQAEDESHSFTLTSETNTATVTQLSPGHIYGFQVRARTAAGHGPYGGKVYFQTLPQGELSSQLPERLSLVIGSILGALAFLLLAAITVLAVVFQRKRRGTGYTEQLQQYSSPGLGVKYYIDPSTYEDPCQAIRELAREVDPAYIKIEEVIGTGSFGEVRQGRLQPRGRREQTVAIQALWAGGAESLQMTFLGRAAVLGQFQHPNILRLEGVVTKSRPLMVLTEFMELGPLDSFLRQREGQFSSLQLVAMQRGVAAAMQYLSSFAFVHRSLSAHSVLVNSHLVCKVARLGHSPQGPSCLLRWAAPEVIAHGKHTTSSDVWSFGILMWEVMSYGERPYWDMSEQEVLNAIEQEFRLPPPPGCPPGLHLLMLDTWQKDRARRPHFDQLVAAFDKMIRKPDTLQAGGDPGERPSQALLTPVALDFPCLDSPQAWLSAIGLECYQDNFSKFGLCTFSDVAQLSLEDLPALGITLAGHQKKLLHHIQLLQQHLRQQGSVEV
Source text: as §1, §2

T3 sequence (P29376 17-864): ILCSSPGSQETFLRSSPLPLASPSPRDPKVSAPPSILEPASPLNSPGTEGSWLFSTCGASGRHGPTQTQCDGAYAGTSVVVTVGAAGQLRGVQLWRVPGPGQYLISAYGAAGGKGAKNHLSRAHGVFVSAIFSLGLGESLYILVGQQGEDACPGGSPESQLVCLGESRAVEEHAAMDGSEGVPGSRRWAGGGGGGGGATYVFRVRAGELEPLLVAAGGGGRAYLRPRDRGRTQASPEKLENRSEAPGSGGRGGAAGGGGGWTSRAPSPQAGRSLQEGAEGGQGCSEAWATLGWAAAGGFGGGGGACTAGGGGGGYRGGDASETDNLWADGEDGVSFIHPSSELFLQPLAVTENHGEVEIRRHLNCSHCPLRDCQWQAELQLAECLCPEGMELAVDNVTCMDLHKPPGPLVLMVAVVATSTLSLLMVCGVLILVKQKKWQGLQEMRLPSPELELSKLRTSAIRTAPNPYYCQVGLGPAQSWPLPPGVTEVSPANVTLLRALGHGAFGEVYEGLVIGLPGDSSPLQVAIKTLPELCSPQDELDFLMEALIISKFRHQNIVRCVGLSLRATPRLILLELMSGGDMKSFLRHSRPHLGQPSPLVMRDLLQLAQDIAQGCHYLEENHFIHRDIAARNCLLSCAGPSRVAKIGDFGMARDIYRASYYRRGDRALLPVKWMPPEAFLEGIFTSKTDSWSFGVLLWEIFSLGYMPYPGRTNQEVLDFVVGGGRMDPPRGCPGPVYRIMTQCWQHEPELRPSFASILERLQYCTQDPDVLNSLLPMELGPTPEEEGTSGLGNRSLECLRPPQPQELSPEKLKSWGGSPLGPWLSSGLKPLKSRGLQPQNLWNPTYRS
T2 sequence (P10721 26-976 L576P): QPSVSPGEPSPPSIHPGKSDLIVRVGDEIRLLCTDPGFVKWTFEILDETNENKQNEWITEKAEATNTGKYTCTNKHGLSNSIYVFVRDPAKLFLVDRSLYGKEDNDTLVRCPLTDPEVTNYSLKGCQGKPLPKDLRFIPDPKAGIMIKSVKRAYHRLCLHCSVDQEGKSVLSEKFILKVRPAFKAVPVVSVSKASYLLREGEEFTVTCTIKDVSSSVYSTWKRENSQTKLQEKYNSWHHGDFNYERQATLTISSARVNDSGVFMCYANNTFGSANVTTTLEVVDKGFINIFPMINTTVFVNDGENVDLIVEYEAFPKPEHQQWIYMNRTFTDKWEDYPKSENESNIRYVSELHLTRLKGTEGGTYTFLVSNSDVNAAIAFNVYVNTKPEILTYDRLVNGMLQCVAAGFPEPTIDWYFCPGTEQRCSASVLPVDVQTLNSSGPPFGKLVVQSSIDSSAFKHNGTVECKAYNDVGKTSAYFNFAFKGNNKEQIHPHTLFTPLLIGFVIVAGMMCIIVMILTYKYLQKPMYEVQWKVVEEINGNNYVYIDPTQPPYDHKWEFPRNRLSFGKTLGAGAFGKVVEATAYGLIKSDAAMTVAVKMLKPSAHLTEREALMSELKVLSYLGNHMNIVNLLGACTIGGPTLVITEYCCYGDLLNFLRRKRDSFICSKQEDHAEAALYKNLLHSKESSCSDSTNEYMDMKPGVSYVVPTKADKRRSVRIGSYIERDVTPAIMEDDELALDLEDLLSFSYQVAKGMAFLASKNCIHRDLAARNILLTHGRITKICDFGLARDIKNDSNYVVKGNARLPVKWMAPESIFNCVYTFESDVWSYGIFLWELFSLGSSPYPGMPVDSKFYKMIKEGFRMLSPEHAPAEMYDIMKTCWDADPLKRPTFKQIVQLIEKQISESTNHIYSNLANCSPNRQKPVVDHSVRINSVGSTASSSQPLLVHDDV

Compound	remaining binding at 1 µM (FLT3(N841I))	remaining binding at 1 µM (KIT(L576P))	remaining binding at 1 µM (LTK)	remaining binding at 1 µM (EPHB6)	remaining binding at 0.1 µM (FLT3(N841I); 100 nM)	remaining binding at 0.1 µM (KIT(L576P); 100 nM)	remaining binding at 0.1 µM (LTK; 100 nM)	remaining binding at 0.1 µM (EPHB6; 100 nM)
Cc1cc(NC(=O)[C@H](O)c2cccc(F)c2)ccc1-c1cn(C)c2ncnc(N)c12 [Compound 11, (R)-N-(4-(4-amino-7-methyl-7H-pyrrolo[2,3-d]pyrimidin-5-yl)-3-methylphenyl)-2-(3-fluorophenyl)-2-hydroxy acetamide]	0.3%	36%	35%	2.6%	–	–	–	–
Cc1nc(N)c2c(-c3ccc(NC(=O)[C@H](O)c4cccc(F)c4)cc3C)cn(C)c2n1 [Compound 24]	100%	98%	100%	100%	–	–	–	–
Cc1nc(N)c2c(-c3ccc(NC(=O)[C@H](O)c4cccc(C(F)(F)F)c4)cc3C)cn(C)c2n1 [Compound 26]	0%	2.6%	22%	48%	34%	85%	98%	94%
